Assay results published in ChEMBL document CHEMBL1201862, “PubChem BioAssay data set” (2004).
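Dose response: 5 concentrations. Exposure: 48 h. Format: 96-well plates. Endpoint: linear interpolation; highest concentration if not reached. GI50 marks 50% less growth.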 Calls of active or inactive are those of the source. No stated cut-off is given here; in the data, active = GI50 up to about 1.1 µM and inactive = higher.

Key:
Assay in all cases: NCI-60 cell line screen, 48 h
[1] = tested on: MCF7
[2] = tested on: RPMI-8226
[3] = tested on: MOLT-4
[4] = tested on: NCI-H460
[5] = tested on: NCI-H522
[6] = tested on: SK-MEL-28
[7] = tested on: DU-145
[8] = tested on: MDA-MB-435
[9] = tested on: HOP-92
[10] = tested on: BT-549
[11] = tested on: M14
[12] = tested on: Malme-3M
[13] = tested on: HCC 2998
[14] = tested on: PC-3
[15] = tested on: K562
[16] = tested on: COLO 205
[17] = tested on: SR
[18] = tested on: HCT-116
[19] = tested on: NCI-H23
[20] = tested on: HCT-15
[21] = tested on: TK-10
[22] = tested on: 786-0
[23] = tested on: MDA-N
[24] = tested on: A549
[25] = tested on: UACC-257
[26] = tested on: NCI/ADR-RES
[27] = tested on: NCI-H226
[28] = tested on: OVCAR-3
[29] = tested on: CCRF-CEM
[30] = tested on: MDA-MB-231
[31] = tested on: SF-268
[32] = tested on: IGROV-1
[33] = tested on: ACHN
[34] = tested on: HOP-62
[35] = tested on: Hs-578T
[36] = tested on: OVCAR-4
[37] = tested on: SF-295
[38] = tested on: SNB-19
[39] = tested on: LOX IMVI
[40] = tested on: UO-31
[41] = tested on: OVCAR-5
[42] = tested on: SF-539
[43] = tested on: SW-620
[44] = tested on: EKVX
[45] = tested on: SNB-75
[46] = tested on: HT-29
[47] = tested on: KM12
[48] = tested on: SK-OV-3
[49] = tested on: U-251
[50] = tested on: UACC-62
[51] = tested on: HL-60
[52] = tested on: OVCAR-8
[53] = tested on: CAKI-1
[54] = tested on: SK-MEL-2
[55] = tested on: SN12C
[56] = tested on: RXF 393
[57] = tested on: SK-MEL-5
[58] = tested on: A498

O=C(CNc1nccs1)Nn1cnc2ccc(S(=O)(=O)Nc3nccs3)cc2c1=O
GI50 [1]: > 100 µM (inactive) | GI50 [2]: > 100 µM (inactive) | GI50 [3]: > 100 µM (inactive) | GI50 [4]: > 100 µM (inactive) | GI50 [5]: > 100 µM (inactive) | GI50 [6]: > 100 µM (inactive) | GI50 [7]: > 100 µM (inactive) | GI50 [8]: > 100 µM (inactive) | GI50 [9]: > 100 µM (inactive) | GI50 [10]: > 100 µM (inactive) | GI50 [11]: > 100 µM (inactive) | GI50 [12]: > 100 µM (inactive) | GI50 [13]: > 100 µM (inactive) | GI50 [14]: > 100 µM (inactive) | GI50 [15]: > 100 µM (inactive) | GI50 [16]: > 100 µM (inactive) | GI50 [17]: 35.6 µM (inactive) | GI50 [18]: > 100 µM (inactive) | GI50 [19]: > 100 µM (inactive) | GI50 [20]: > 100 µM | GI50 [21]: > 100 µM (inactive) | GI50 [22]: > 100 µM (inactive) | GI50 [23]: > 100 µM (inactive) | GI50 [24]: > 100 µM (inactive) | GI50 [25]: > 100 µM (inactive) | GI50 [26]: > 100 µM (inactive) | GI50 [27]: > 100 µM (inactive) | GI50 [28]: > 100 µM (inactive) | GI50 [29]: > 100 µM (inactive) | GI50 [30]: > 100 µM (inactive) | GI50 [31]: > 100 µM (inactive) | GI50 [32]: > 100 µM (inactive) | GI50 [33]: > 100 µM (inactive) | GI50 [34]: > 100 µM (inactive) | GI50 [35]: > 100 µM (inactive) | GI50 [36]: > 100 µM (inactive) | GI50 [37]: > 100 µM (inactive) | GI50 [38]: > 100 µM (inactive) | GI50 [39]: > 100 µM (inactive) | GI50 [40]: > 100 µM (inactive) | GI50 [41]: > 100 µM (inactive) | GI50 [42]: > 100 µM (inactive) | GI50 [43]: > 100 µM (inactive) | GI50 [44]: > 100 µM (inactive) | GI50 [45]: > 100 µM (inactive) | GI50 [46]: > 100 µM (inactive) | GI50 [47]: > 100 µM (inactive) | GI50 [48]: > 100 µM (inactive) | GI50 [49]: > 100 µM (inactive) | GI50 [50]: > 100 µM (inactive) | GI50 [51]: > 100 µM (inactive) | GI50 [52]: > 100 µM (inactive) | GI50 [53]: > 100 µM (inactive) | GI50 [54]: > 100 µM (inactive) | GI50 [55]: > 100 µM (inactive)

CC(=O)OCC1OC(n2c(=O)[nH]c(=O)c3sccc32)C(Br)C1OC(C)=O (stereo unspecified)
GI50 [1]: > 100 µM (inactive) | GI50 [2]: > 100 µM (inactive) | GI50 [56]: > 100 µM (inactive) | GI50 [3]: > 100 µM (inactive) | GI50 [4]: > 100 µM (inactive) | GI50 [5]: > 100 µM (inactive) | GI50 [6]: > 100 µM (inactive) | GI50 [57]: > 100 µM (inactive) | GI50 [7]: > 100 µM (inactive) | GI50 [8]: > 100 µM (inactive) | GI50 [9]: > 100 µM (inactive) | GI50 [10]: > 100 µM (inactive) | GI50 [11]: > 100 µM (inactive) | GI50 [12]: > 100 µM (inactive) | GI50 [13]: > 100 µM (inactive) | GI50 [58]: > 100 µM (inactive) | GI50 [14]: > 100 µM (inactive) | GI50 [15]: > 100 µM (inactive) | GI50 [16]: > 100 µM (inactive) | GI50 [17]: > 100 µM (inactive) | GI50 [18]: > 100 µM (inactive) | GI50 [19]: > 100 µM (inactive) | GI50 [20]: > 100 µM | GI50 [21]: > 100 µM (inactive) | GI50 [22]: > 100 µM (inactive) | GI50 [23]: > 100 µM (inactive) | GI50 [24]: > 100 µM (inactive) | GI50 [25]: > 100 µM (inactive) | GI50 [26]: > 100 µM (inactive) | GI50 [27]: > 100 µM (inactive) | GI50 [28]: > 100 µM (inactive) | GI50 [29]: > 100 µM (inactive) | GI50 [30]: > 100 µM (inactive) | GI50 [31]: > 100 µM (inactive) | GI50 [32]: > 100 µM (inactive) | GI50 [33]: > 100 µM (inactive) | GI50 [34]: > 100 µM (inactive) | GI50 [35]: > 100 µM (inactive) | GI50 [36]: > 100 µM (inactive) | GI50 [37]: > 100 µM (inactive) | GI50 [38]: > 100 µM (inactive) | GI50 [39]: > 100 µM (inactive) | GI50 [40]: > 100 µM (inactive) | GI50 [41]: > 100 µM (inactive) | GI50 [42]: > 100 µM (inactive) | GI50 [43]: > 100 µM (inactive) | GI50 [44]: > 100 µM (inactive) | GI50 [45]: > 100 µM (inactive) | GI50 [46]: > 100 µM (inactive) | GI50 [47]: > 100 µM (inactive) | GI50 [49]: > 100 µM (inactive) | GI50 [51]: > 100 µM (inactive) | GI50 [52]: > 100 µM (inactive) | GI50 [53]: > 100 µM (inactive) | GI50 [54]: > 100 µM (inactive) | GI50 [55]: > 100 µM (inactive)
